{"source": "patent US20250129102A1", "about": "“CRYSTAL FORM OF PYRIMIDINE HETEROCYCLIC COMPOUND AND PREPARATION METHOD THEREFOR” (D3 Bio (Wuxi) Co., Ltd., priority 2021, published 2025)", "key": {"[1]": {"assay": "Body weight and tolerance in the Mia PaCa-2 tumor model", "assay_type": "in vivo", "conditions": "each dose group (10 and 30 mg/kg PO QD × 22)", "method": "Assay on pharmacodynamics in vivo in a subcutaneously transplanted tumor model of human pancreatic cancer Mia PaCa-2 cells in Balb/c Nude mice\nCell inoculation: 0.2 mL (5×10^6 cells/mouse) of Mia PaCa-2 cells (plus Matrigel, 1:1 by volume) were subcutaneously inoculated into the right back of each mouse. When the average tumor volume reached 190 mm^3, mice were randomized into groups based on tumor volume and administration was initiated according to the protocol in Table 15."}, "[2]": {"assay": "Stability in whole blood, cynomolgus monkeys", "assay_type": "in vitro ADME", "conditions": "5 μM, 37° C.", "method": "(§1) Stabilities of the assay compound in whole blood of CD-1 mice, SD rats, beagle dogs and cynomolgus monkeys were assayed, respectively. On the day of the assay or the day before the assay, fresh whole blood from CD-1 mice, SD rats, beagle dogs, and cynomolgus monkeys was collected using anticoagulant EDTA-K2. Prior to the start of the assay, the whole blood was mixed with PBS in 1:1 (v: v) and the mixture was preheated in a 37° C. water bath for 10 to 20 minutes. 96-well incubation plates were prepared and named T0, T30, T60, […], respectively. In the corresponding incubation plates, including T0, T30, T60 and […] incubation plates, 2 μL of working solutions of the compound or the control compound were mixed with 98 μL of blank whole blood of mice, rats, canines, monkeys and human in duplicate. All samples were incubated in a 37° C. water bath. The final incubation concentration of the compound was 5 μM and the final incubation concentration of the control compound was 2 μM. At the end of incubation for each time point, the corresponding incubation plate was removed and 100 μL of ultrapure water was immediately added to the corresponding sample wells, and mixed well. 800 μL of a solution of 200 ng/mL tolbutamide and labetalol in acetonitrile was added to precipitate the protein. […] 150 μL of supernatant was taken out and analyzed by LC/MS/MS."}, "[3]": {"assay": "Stability in whole blood, SD rats", "assay_type": "in vitro ADME", "conditions": "5 μM, 37° C.", "method": "as §1"}, "[4]": {"test_system": "KRAS^G12C-mutated MIA-PA-CA-2 cells", "assay": "cells", "conditions": "Homo sapiens, MIA PaCa-2, 72 h", "method": "The main reagent used in this assay included CellTiter-Glo (Promega, Cat. No. G7573).\nThe main instrument used in this assay was PerkinElmer EnVision multi-function microplate reader.\nThe fluorescence value was read by EnVision. • 6) Data analysis: The inhibition rate of cells in each well was calculated according to the following equation:\nY=Bottom+(Top−Bottom)/(1+10^((Log IC50−X)*HillSlope))"}, "[5]": {"assay": "Stability in plasma, CD-1 mice", "assay_type": "in vitro ADME", "conditions": "CD-1 mice plasma, 2 μM, 37° C.", "method": "(§2) Stabilities of the assay compound in plasma of CD-1 mice and human were assayed, respectively. Cryopreserved plasma was thawed for 10 to 20 min. After the plasma was completely thawed, it was placed in a centrifuge and centrifuged at 3220×g for 5 min to remove any suspended matter and sediment in the plasma. 96-well incubation plates were prepared and named T0, T10, T30, T60, T120, respectively. 98 μL of blank plasmas of mouse, rat, canine, monkey and human were added to the corresponding incubation plates, then 2 μL of working solutions of the compound or the control compound were added to the corresponding plates in duplicate. All samples were incubated in a 37° C. water bath. The final incubation concentrations of the compound and the control compounds bisacodyl, enalapril maleate, procaine and probanthine were 2 μM, and the final organic phase content was 2.0%. At the end of incubation for each time point, the corresponding incubation plate was removed and 400 μL of a solution of 200 ng/mL of tolbutamide and labetalol in acetonitrile was added to each corresponding sample well to precipitate the protein. All sample plates were sealed and shaken well, and then centrifuged at 3220×g for 20 minutes. 50 μL of supernatant was taken out and diluted in 100 μL of ultrapure water. All samples were mixed well and then analyzed by LC/MS/MS."}, "[6]": {"assay": "Stability in whole blood, beagle dogs", "assay_type": "in vitro ADME", "conditions": "5 μM, 37° C.", "method": "as §1"}, "[7]": {"assay": "Protein binding rate in plasma by equilibrium dialysis, beagle dogs", "assay_type": "in vitro ADME", "conditions": "2 μM, equilibrium dialysis 4 hours", "method": "(§3) Protein binding rate of the assay compound in plasma of CD-1 mice, SD rats, beagle dogs, cynomolgus monkeys and human was determined by equilibrium dialysis. Plasma samples with a compound concentration of 2 μM were prepared using plasma of the above five species, placed in a 96-well equilibrium dialysis device, and dialyzed with phosphate buffer solution at 37±1° C. for 4 hours. Warfarin was used as the control compound in this assay. The concentrations of the assay compound in plasma and dialysis buffer were determined by LC-MS/MS method."}, "[8]": {"assay": "Protein binding rate in plasma by equilibrium dialysis, cynomolgus monkeys", "assay_type": "in vitro ADME", "conditions": "2 μM, equilibrium dialysis 4 hours", "method": "as §3"}, "[9]": {"test_system": "KRAS^G12C-mutated H358 cells", "assay": "cells", "conditions": "Homo sapiens, NCI-H358, 120 h, read-out: NCI-H358 IC50", "method": "The main instrument used in this assay was a Nivo multi-label analyzer (PerkinElmer).\nThe assay was carried out in duplicate. 78 μL of medium was added to the intermediate plate, and then 2 μL of the serially diluted compound was transferred to each well of the intermediate plate according to the corresponding position. After mixing well, 20 μL per well was transferred to the cell plate. […] The cell plate was incubated in a carbon dioxide incubator for 5 days. Another cell plate was prepared, and the signal value of the cell plate was read on the day of compound addition as the maximum value (Max value in the equation below) to participate in data analysis. 25 μL of cell viability chemiluminescence detection reagent was added to each well of the cell plate, and the plate was incubated at room temperature for 10 minutes to stabilize the luminescence signal. A multi-label analyzer was used for reading the plate. • 3) 25 μL of cell viability chemiluminescence detection reagent was added to each well of the cell plate, and the plate was incubated at room temperature for 10 minutes to stabilize the luminescence signal. A multi-label analyzer was used for reading the plate."}, "[10]": {"assay": "Stability in plasma, human", "assay_type": "in vitro ADME", "conditions": "2 μM, 37° C.", "method": "as §2"}}, "note": "pIC50: −log10 of the molar value."}
{"molecule": "C=C(F)C(=O)N1CCN(c2nc(OC[C@@]34CCCN3C[C@H](F)C4)nc3c2CO[C@H](c2c(F)c(N)cc(C)c2C(F)(F)F)C3)C[C@@H]1CC#N", "note": "[Compound of formula (I)]", "values": [{"measurement": "body weight of mice", "setting": "[1]", "result": "stable"}, {"measurement": "tolerance", "setting": "[1]", "result": "no obvious intolerance"}, {"measurement": "Detection of assay compound content within 240 min", "setting": "[2]", "result": 77, "unit": "%"}, {"measurement": "Detection of assay compound content within 240 min", "setting": "[3]", "result": 115, "unit": "%"}, {"measurement": "pIC50", "setting": "[4]", "result": 9.36}, {"measurement": "Detection of assay compound content within 120 min", "setting": "[5]", "result": 94, "unit": "%"}, {"measurement": "Detection of assay compound content within 240 min", "setting": "[6]", "result": 102, "unit": "%"}, {"measurement": "Protein unbound rate (%)", "setting": "[7]", "result": 3.3, "unit": "%"}, {"measurement": "Protein unbound rate (%)", "setting": "[8]", "result": 7.8, "unit": "%"}, {"measurement": "pIC50", "setting": "[9]", "result": 9.22}, {"measurement": "Detection of assay compound content within 120 min", "setting": "[10]", "result": 93, "unit": "%"}]}
